Measurements as given in a melting point compilation (Tetko et al.; mined from patent text by program, amines drawn as free bases though some values may be those of a salt).

Point of comparison: CCCOc1c(-c2ccccc2)n[nH]c1-c1ccccc1, melting point 132 °C. Against it:
- Cc1cc(OC(=O)N[C@@H](CCC(=O)O)C(=O)O)ccc1N(CCCl)CCCl — higher, 160 to 162 °C
- COc1cc(Oc2ccc(C(=O)N(C3CCCCC3)C3CCCC3)cc2C)cc(OC)c1OC — higher, 181 to 182 °C
- CCn1ncc2c(NCCc3ccccc3)c3ccc(OC)cc3nc21 — higher, 163 to 164 °C
- C[C@@H](SC(CO)CO)[C@](O)(Cn1cncn1)c1ccccc1F — lower, 121 to 123 °C
- COC(=O)c1cnc(F)cn1 — lower, 55.6 to 56.7 °C
- COc1cccc(-c2c(=O)[nH]c3cc(Cl)c(Cl)cc3[n+]2[O-])c1 — higher, 238 to 240 °C
- CC(C)(C)c1ccc(C(=O)Nc2cn3cc(-c4cccnc4)ccc3n2)cc1 — higher, 288 to 289 °C
- COc1ccc(Oc2c(C)cc(CC#N)cc2C)cc1C(C)C — lower, 56 to 58 °C
- Cc1cc(-c2ccccc2)c2ccccc2n1 — lower, 100 to 101 °C
- O=C1SCC(O)=C1Cc1ccc(Cl)c(Cl)c1 — higher, 239 to 240 °C
- Cn1cccc1C(=O)C(C#N)C(=O)Nc1c(Cl)cccc1Cl (stereo not drawn) — higher, 196 to 199 °C
- CCn1cc(C(=O)O)c(=O)c2cc([N+](=O)[O-])c(-c3cc(C)nc(C)c3)cc21 — higher, 289 to 291 °C
- CCOC(=O)c1cnc2ccc(C#N)cc2c1O — higher, > 265 °C
- CC(C)(C)c1ccc(/C=C/C(=O)Nc2ccc3ccn(CCO)c3c2)cc1 — higher, 178 °C
- Cc1c(NC(=O)c2ccc(OC[C@@H]3CCCO3)cc2)ccc2cc(CNCC3CCOCC3)[nH]c12 — higher, 161 to 162 °C
- NC(=S)Cc1cccc(Oc2ccccc2)c1O — lower, 70 °C
- COc1cc(C)c(Cl)cc1C(=O)Cl — lower, 106 to 107 °C
- OC1CSC(Oc2cccc3ccoc23)C(O)C1O (stereo not drawn) — higher, 160 °C
- COc1ccc(Cc2cc(OC)c(OC)c(OC)c2)cc1 — lower, 66 to 67 °C
- CN=C(ON1C(=O)c2ccccc2C1=O)c1ccccc1 — higher, 174 to 176 °C
- CN1CCC(Sc2ccc3[nH]c(=O)[nH]c3c2)CC1 — higher, 214 to 215 °C
- CCN(CC)CCOc1ccc(NC(=O)C#Cc2ccc(C(F)(F)F)cc2Cl)cc1N — lower, 127 to 130 °C
- CN(C)C(=O)C(CCO)C1(C)CCCc2c1[nH]c1ccccc21 (stereo not drawn) — higher, 145 to 146 °C
- COc1cc2c(cc1Br)-c1c(-c3cccs3)c3c(n1CC2)C(=O)N(C(C)C)CCN(C(=O)C(C)C)C3 — higher, 248 to 249 °C
- O=C1CSCN1CCCCN1CCN(c2ccc3ccccc3n2)CC1 — lower, 105 to 107 °C
- CCOC(=O)c1[nH]c2c(O)cccc2c1C — higher, 187 to 190 °C
- CCOc1ccc2c(c1)CC(=O)N2C1CCCCO1 (stereo not drawn) — lower, 108 to 110 °C
- CCOCc1nnc2c(C(F)(F)F)c(CN[C@H]3CC[C@@H](c4ccccc4)CC3)ccn12 — higher, 137 °C
- CCN(C)C(=O)C1=CC(C)(C)Oc2ccc([N+](=O)[O-])cc21 — lower, 121 to 124 °C
- CCCC12CCC(=O)C=C1c1c(cc(OCC3=NCCN3)c(Cl)c1Cl)C2 (stereo not drawn) — higher, 152 to 154 °C
- O=C(NOC1CCCCO1)c1cnc(N2CCN(S(=O)(=O)c3ccc4ccccc4c3)CC2)nc1 (stereo not drawn) — higher, 198 °C
- CC(=O)C(O)C1OC(n2cnc3c(NC4CCCc5ccccc54)ncnc32)C(O)C1O (stereo not drawn) — lower, 87 to 97 °C
- OCc1nccc(N2CCOCC2)n1 — lower, 76 to 78 °C
- CCOC(=O)c1ccc(O)c(CC)c1 — lower, 73 to 74 °C
- CCCCCCCCCCN1C(=O)OC2(CCNCC2)C1(C)O (stereo not drawn) — higher, 139 to 140 °C
- CCCCCOc1cc(C(=O)O)c2c(c1)C(=O)CC2 — higher, 165 to 166 °C
- CCN1C(=O)SC(=Cc2ccc([N+](=O)[O-])cc2)C1=O — higher, 217 to 218 °C
- CC(=O)OC1(Cc2ccncc2)C(=O)N(N2CCCCC2)c2ccccc21 (stereo not drawn) — higher, 139 to 140 °C
- CCCc1nc2c(C)cc(C)nc2n1Cc1ccc2oc(-c3ccccc3C(=O)O)nc2c1 — higher, 150 to 160 °C
- Cc1ccc2c(c1)C1(OCCO1)C1(CCC(=O)CC1)C2 — lower, 116 to 118 °C
- Cc1nn(C)c2c(=O)n(C)c(C)nc12 — higher, 190 to 192 °C
- CCCC(=O)NNC(=O)c1ccncc1 — higher, 142 °C
